# Measurements published in the supplement of paper PMC7645387.
# ± gives the standard deviation of the averaged measurements.
# Key:
# Assay in all cases: cell viability relative to DMSO control; higher = less growth inhibition
# Conditions in all cases: treatment time: 6 days
# HDFB = tested on: HDFB
# Procedure: (§1)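 MCC cell lines (PeTa, MKL-1, MS-1, WaGa) and HDFB fibroblasts were treated for 6 days with serial dilutions (1e-11 to 1e-4 M) of single compounds in quadruplicate. Viability was read by CellTiter-Glo 2.0 and expressed as % of DMSO control.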
# PeTa = tested on: PeTa
# Procedure: as §1
# MKL-1 = tested on: MKL-1
# Procedure: as §1
# MS-1 = tested on: MS-1
# Procedure: as §1
# WaGa = tested on: WaGa
# Procedure: as §1
SMILES,cell viability (HDFB; log10 concentration (M): -4),cell viability (HDFB; log10 concentration (M): -5),cell viability (HDFB; log10 concentration (M): -6),cell viability (HDFB; log10 concentration (M): -7),cell viability (HDFB; log10 concentration (M): -8),cell viability (HDFB; log10 concentration (M): -9),cell viability (HDFB; log10 concentration (M): -10),cell viability (HDFB; log10 concentration (M): -11),cell viability (PeTa; log10 concentration (M): -4),cell viability (PeTa; log10 concentration (M): -5),cell viability (PeTa; log10 concentration (M): -6),cell viability (PeTa; log10 concentration (M): -7),cell viability (PeTa; log10 concentration (M): -8),cell viability (PeTa; log10 concentration (M): -9),cell viability (PeTa; log10 concentration (M): -10),cell viability (PeTa; log10 concentration (M): -11),cell viability (MKL-1; log10 concentration (M): -4),cell viability (MKL-1; log10 concentration (M): -5),cell viability (MKL-1; log10 concentration (M): -6),cell viability (MKL-1; log10 concentration (M): -7),cell viability (MKL-1; log10 concentration (M): -8),cell viability (MKL-1; log10 concentration (M): -9),cell viability (MKL-1; log10 concentration (M): -10),cell viability (MKL-1; log10 concentration (M): -11),cell viability (MS-1; log10 concentration (M): -5),cell viability (MS-1; log10 concentration (M): -6),cell viability (MS-1; log10 concentration (M): -7),cell viability (MS-1; log10 concentration (M): -8),cell viability (MS-1; log10 concentration (M): -9),cell viability (MS-1; log10 concentration (M): -10),cell viability (MS-1; log10 concentration (M): -11),cell viability (WaGa; log10 concentration (M): -5),cell viability (WaGa; log10 concentration (M): -6),cell viability (WaGa; log10 concentration (M): -7),cell viability (WaGa; log10 concentration (M): -8),cell viability (WaGa; log10 concentration (M): -9),cell viability (WaGa; log10 concentration (M): -10),cell viability (WaGa; log10 concentration (M): -11)
Cc1sc2c(c1C)C(c1ccc(Cl)cc1)=N[C@@H](CC(=O)OC(C)(C)C)c1nnc(C)n1-2 [(+)-JQ1],0.0326 ± 0.017%,31.7 ± 3.8%,52 ± 8.2%,78.7 ± 1.5%,94.8 ± 1.7%,106 ± 11%,110 ± 14%,99 ± 7.9%,0.0148 ± 0.0097%,3.47 ± 0.2%,7.04 ± 0.4%,21.7 ± 2.3%,94.3 ± 7.1%,96.7 ± 12%,87.4 ± 18%,100 ± 2.9%,0.00849 ± 0.0057%,0.0389 ± 0.0064%,0.0944 ± 0.014%,20.7 ± 1.3%,66.8 ± 11%,89.2 ± 19%,94.1 ± 1.5%,93.9 ± 6.4%,,,,,,,,,,,,,,
Cc1cc2c(cc1N1C(=O)c3cccc4c(CCCO)ccc(c34)C1=O)n(C)c(=O)n2C [BAY299],31.2 ± 1.8%,78.5 ± 3.7%,74.1 ± 2.2%,92.1 ± 3.5%,100 ± 12%,97.5 ± 6.5%,100 ± 9.7%,99.3 ± 4%,0.141 ± 0.02%,2.01 ± 0.19%,37.3 ± 4.9%,88.5 ± 20%,92.1 ± 19%,94.4 ± 17%,103 ± 18%,95.8 ± 12%,0.0297 ± 0.015%,0.557 ± 0.05%,20.6 ± 2.8%,102 ± 15%,88.4 ± 4.3%,111 ± 13%,101 ± 15%,92.3 ± 18%,,,,,,,,,,,,,,
Nc1ccccc1NC(=O)c1ccc(CNC(=O)OCc2cccnc2)cc1 [Entinostat],0.192 ± 0.057%,11 ± 1.8%,33.8 ± 3.8%,94.1 ± 3.7%,102 ± 2.1%,102 ± 2.9%,104 ± 4.2%,104 ± 5.3%,0.0531 ± 0.016%,0.0605 ± 0.051%,0.0805 ± 0.058%,50.9 ± 3.8%,94.9 ± 2.8%,98.1 ± 5.3%,102 ± 2%,108 ± 4.7%,0.0104 ± 0.0078%,0.0238 ± 0.013%,0.0511 ± 0.011%,75 ± 2.7%,102 ± 2.8%,102.6 ± 0.8%,101 ± 2.3%,102 ± 1.3%,,,,,,,,,,,,,,
O=C(NC[C@H](O)CN1CCc2ccccc2C1)c1ccnc(NC2CCC2)c1 [GSK591],91.5 ± 3.5%,115 ± 7.4%,112 ± 5.1%,117 ± 5.5%,113 ± 3.1%,104 ± 2.8%,104 ± 2.1%,101 ± 2%,26.2 ± 2.9%,80.4 ± 3.4%,93.2 ± 3.1%,103 ± 3.5%,107 ± 7.2%,108 ± 6.4%,106 ± 7.8%,100 ± 7.8%,37.2 ± 2.9%,64.4 ± 12%,72.4 ± 13%,79.2 ± 16%,84.2 ± 21%,98.2 ± 17%,111 ± 28%,101 ± 22%,,,,,,,,,,,,,,
c1ccc([C@@H]2C[C@H]2NC2CCNCC2)cc1 [GSK-LSD1],,97.43 ± 0.88%,98.5 ± 1.4%,98.6 ± 3.9%,99.4 ± 4.2%,100 ± 1.2%,105 ± 2.1%,103 ± 1.1%,,28.8 ± 1.3%,23.1 ± 2.4%,21.3 ± 0.88%,28.1 ± 0.85%,67.8 ± 4.2%,101 ± 5.4%,99.1 ± 7.4%,,56.1 ± 5.8%,62 ± 1.4%,60.1 ± 3.4%,67.2 ± 1.8%,87.9 ± 6.7%,98.1 ± 2.9%,98.7 ± 1.5%,45.9 ± 1.6%,45.4 ± 3.8%,47.6 ± 1.6%,47.1 ± 3.4%,74.9 ± 5.8%,93.1 ± 2.9%,94.7 ± 3.8%,45 ± 5.1%,49.8 ± 2.1%,44.1 ± 5.5%,55.4 ± 1.8%,76.6 ± 5.2%,95.6 ± 3%,97.6 ± 6.1%
CN1CCN(c2ccc(-c3cccc(CN4CCOCC4)c3)cc2NC(=O)c2c[nH]c(=O)cc2C(F)(F)F)CC1 [OICR9429],42.7 ± 12%,83.7 ± 5.2%,97.6 ± 5.7%,105 ± 3.1%,117 ± 20%,113 ± 7.9%,108 ± 4.6%,104 ± 4.1%,49.1 ± 85%,96.8 ± 45%,103 ± 21%,111 ± 21%,119 ± 29%,126 ± 27%,122 ± 21%,126 ± 25%,0.438 ± 0.44%,57.6 ± 3.4%,79.2 ± 7.5%,87.1 ± 17%,80.2 ± 6.2%,85.8 ± 12%,89.9 ± 12%,85.7 ± 13%,,,,,,,,,,,,,,
N[C@H]1CC[C@H](N[C@@H]2C[C@H]2c2ccccc2)CC1 [ORY-1001],,95.7 ± 2.2%,97.6 ± 3.9%,94.1 ± 2.7%,95.1 ± 2.2%,96.1 ± 1.3%,99.58 ± 0.98%,100 ± 1.3%,,22.3 ± 2.8%,18.2 ± 3.2%,17.2 ± 0.89%,16.3 ± 1.2%,47.5 ± 17%,102 ± 6.4%,97.6 ± 4.8%,,39.8 ± 5.9%,44.9 ± 3.6%,46.4 ± 4.5%,62.8 ± 28%,81 ± 16%,102 ± 3.2%,100 ± 4.5%,47.3 ± 2.2%,56.8 ± 1.2%,58.9 ± 5.5%,57.2 ± 2.4%,58.8 ± 1.9%,104 ± 3%,104 ± 16%,35.1 ± 2.3%,38.3 ± 4.8%,39.7 ± 5.1%,44 ± 5.8%,63.3 ± 1.2%,91.5 ± 1.2%,99.1 ± 0.86%
CCOC(=O)NCCCC(=O)NCCc1ccccc1 [Santacruzamate A],41.6 ± 3.4%,103 ± 3.4%,103 ± 3.5%,99.8 ± 4.6%,101 ± 3.4%,101 ± 6.3%,99.3 ± 7.7%,100 ± 9.2%,45.5 ± 14%,104 ± 5.5%,105 ± 2.4%,99.9 ± 11%,105 ± 1.4%,103 ± 1.9%,105 ± 3.6%,103 ± 2.8%,34.9 ± 2.9%,106 ± 1.2%,105 ± 1.5%,104 ± 1.9%,103 ± 1.4%,102 ± 3.4%,99.3 ± 7.4%,100 ± 1.6%,,,,,,,,,,,,,,
